# According to patent publication EP0263214A1, “Tetrapeptide methyl ketone inhibitors of viral proteases” (priority 1986, dated 1988):
# Read-outs that look alike come from different tables or passages of the source. * marks the point of attachment. CH2Cl = ClC*
# Tests used:
# chymotrypsin = conditions: inhibitor concentration of 600 ug/rnL; cited from earlier work
# [1] = tested on: human poliomyelitis virus type 2; format: cell-based
# subtilisin BPN' = conditions: compared within a series of peptide chloromethyl ketones; cited from earlier work
# rhinovirus type 1A = format: cell-based
# Poliovirus type 2 = format: cell-based
# human rhinovirus type 1A = format: cell-based
molecule,measurement,setting,value
Ac-Leu-Leu-PheCH3,inhibition of chymotrypsin,chymotrypsin,no inhibition was observed
COC(=O)CCC(=O)N[C@@H](Cc1ccccc1)C(=O)NCC(=O)N[C@@H](CC(C)C)C(=O)N[C@@H](CC(C)C)C(C)=O [MeOSuc-Phe-Gly-Leu-LeuCH3],activity in the viral cleavage assay,[1]; 50 µg/mL,active
acetyl-L-phenylalanyl-L-glycyl-L-alanyl-L-leucyl chloromethyl ketone (Ac-FGAL-CH2Cl; SMILES CC(=O)N[C@@H](Cc1ccccc1)C(=O)NCC(=O)N[C@@H](C)C(=O)N[C@@H](CC(C)C)C(=O)CCl) [Ac-Phe-Gly-Ala-LeuCH2CI],inhibition of subtilisin BPN',subtilisin BPN',fastest inhibitor
CC(=O)[C@H](CC(C)C)NC(=O)[C@H](C)NC(=O)CNC(=O)[C@H](Cc1ccccc1)NC(=O)OCc1ccccc1 [Z-Phe-Gly-Ala-LeuCH3],plaque reduction,rhinovirus type 1A,> 90%
same,plaque reduction,Poliovirus type 2,> 90%
same,activity in the viral cleavage assay,[1]; 50 µg/mL,active
same,cytotoxicity,HeLa cells,No cytotoxicity was observed
"CC(=O)[C@H](CC(C)C)NC(=O)[C@H](C)NC(=O)CNC(=O)[C@H](Cc1ccccc1)NC(=O)OC(C)(C)C [Boc-Phe-Gly-Ala-LeuCH3, reference compound]",activity in the viral cleavage assay,[1],failed to show activity
same,activity in the viral cleavage assay,human rhinovirus type 1A,failed to show activity
